Source: patent US6083977A, “Trienoic retinoid compounds and methods” (Ligand Pharmaceuticals Incorporated, priority 1995, dated 2000)
One block for each compound: values may come before it.

Key:
AML-193 = test: Incorporation of 3H-thymidine, AML-193; settings: 96 h, read-out: TdR IC50 (50% inhibition of maximally observed thymidine incorporation)
RARs = test: Co-transfection assay, RAR subfamily; format: cell-based, human
Method: (§1) Utilizing the "cis-trans" or "co-transfection" assay described by Evans et al., Science, 240:889-95 (May 13, 1988), the disclosure of which is herein incorporated by reference, the retinoid compounds of the present invention were tested and found to have strong, specific activity as either selective RAR agonists, selective RXR agonists, or as pan-agonist activators of both RAR and RXR receptors. This assay is described in further detail in U.S. Pat. Nos. 4,981,784 and 5,071,773, the disclosures of which are incorporated herein by reference.
(§2) The co-transfection assay provides a method for identifying functional agonists which mimic, or antagonists which inhibit, the effect of native hormones, and quantifying their activity for responsive IR proteins. In this regard, the co-transfection assay mimics an in vivo system in the laboratory. Importantly, activity in the co-transfection assay correlates very well with known in vivo activity, such that the co-transfection assay functions as a qualitative and quantitative predictor of a tested compounds in vivo pharmacology. See, e.g., T. Berger et al. 41 J. Steroid Biochem. Molec. Biol. 773 (1992), the disclosure of which is herein incorporated by reference.
In the co-transfection assay, a cloned cDNA for an IR (e.g., human RARα, RARβ, RXRγ) under the control of a constitutive promoter (e.g., the SV 40 promoter) is introduced by transfection (a procedure to induce cells to take up foreign genes) into a background cell substantially devoid of endogenous IRs. This introduced gene directs the recipient cells to make the IR protein of interest. A second gene is also introduced (co-transfected) into the same cells in conjunction with the IR gene. This second gene, comprising the cDNA for a reporter protein, such as firefly luciferase (LUC), is controlled by an appropriate hormone responsive promoter containing a hormone response element (HRE). This reporter plasmid functions as a reporter for the transcription-modulating activity of the target IR. Thus, the reporter acts as a surrogate for the products (mRNA then protein) normally expressed by a gene under control of the target receptor and its native hormone.
The co-transfection assay can detect small molecule agonists or antagonists of target IRs. Exposing the transfected cells to an agonist ligand compound increases reporter activity in the transfected cells. This activity can be conveniently measured, e.g., by increasing luciferase production, which reflects compound-dependent, IR-mediated increases in reporter transcription. […] . Increasing concentrations of a suspected antagonist will decrease the reporter signal (e.g., luciferase production). The co-transfection assay is therefore useful to detect both agonists and antagonists of specific IRs. Furthermore, it determines not only whether a compound interacts with a particular IR, but whether this interaction mimics (agonizes) or blocks (antagonizes) the effects of the native regulatory molecules on target gene expression, as well as the specificity and strength of this interaction. […]

RARγ = target: T1, RARγ (Homo sapiens, UniProt P13631); test: Co-transfection assay (CV-1 cells), RARγ agonist activity; format: cell-based
T1 construct: expressed in transfected cells; host or cells: CV-1 (African green monkey kidney fibroblasts)
T1 sequence (P13631 1-454): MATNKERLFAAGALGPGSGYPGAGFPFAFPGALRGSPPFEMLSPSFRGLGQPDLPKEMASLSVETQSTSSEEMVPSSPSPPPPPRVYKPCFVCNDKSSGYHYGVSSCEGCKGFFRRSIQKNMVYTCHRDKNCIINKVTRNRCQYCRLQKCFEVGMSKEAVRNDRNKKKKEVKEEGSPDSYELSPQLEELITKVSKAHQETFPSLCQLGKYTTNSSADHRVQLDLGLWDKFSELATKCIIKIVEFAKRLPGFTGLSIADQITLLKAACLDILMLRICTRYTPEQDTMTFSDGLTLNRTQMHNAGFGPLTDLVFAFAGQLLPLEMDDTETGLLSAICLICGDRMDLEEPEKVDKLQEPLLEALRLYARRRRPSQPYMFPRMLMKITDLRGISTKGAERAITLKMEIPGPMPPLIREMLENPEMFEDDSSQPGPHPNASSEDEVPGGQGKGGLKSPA

RAR and RXR receptors = test: Binding to the RAR and RXR receptors; settings: relative to ATRA (RAR) and 9-cis (RXR)
RARα = target: T2, RARα (Homo sapiens, UniProt P10276); test: Co-transfection assay (CV-1 cells), RARα agonist activity; format: cell-based; settings: read-out: RARα Pot (potency, EC50)
T2 construct: expressed in transfected cells; host or cells: CV-1 (African green monkey kidney fibroblasts)
T2 sequence (P10276 1-462): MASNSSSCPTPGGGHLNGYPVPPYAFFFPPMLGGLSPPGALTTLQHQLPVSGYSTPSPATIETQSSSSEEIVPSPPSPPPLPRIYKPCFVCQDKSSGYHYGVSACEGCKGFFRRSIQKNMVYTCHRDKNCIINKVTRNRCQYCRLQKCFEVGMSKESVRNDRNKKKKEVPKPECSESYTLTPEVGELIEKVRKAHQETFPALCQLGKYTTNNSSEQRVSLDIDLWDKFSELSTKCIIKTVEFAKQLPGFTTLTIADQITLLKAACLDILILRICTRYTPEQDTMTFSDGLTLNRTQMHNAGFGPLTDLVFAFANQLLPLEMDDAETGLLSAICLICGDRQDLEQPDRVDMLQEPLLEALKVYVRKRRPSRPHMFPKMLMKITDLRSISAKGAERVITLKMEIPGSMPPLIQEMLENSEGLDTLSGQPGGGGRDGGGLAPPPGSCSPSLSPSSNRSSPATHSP

RARβ = target: T3, RARβ (Homo sapiens, UniProt P10826); test: Co-transfection assay (CV-1 cells), RARβ agonist activity; format: cell-based; settings: read-out: RARβ Pot (potency, EC50)
T3 construct: expressed in transfected cells; host or cells: CV-1 (African green monkey kidney fibroblasts)
T3 sequence (P10826 1-448 isoform P10826-2): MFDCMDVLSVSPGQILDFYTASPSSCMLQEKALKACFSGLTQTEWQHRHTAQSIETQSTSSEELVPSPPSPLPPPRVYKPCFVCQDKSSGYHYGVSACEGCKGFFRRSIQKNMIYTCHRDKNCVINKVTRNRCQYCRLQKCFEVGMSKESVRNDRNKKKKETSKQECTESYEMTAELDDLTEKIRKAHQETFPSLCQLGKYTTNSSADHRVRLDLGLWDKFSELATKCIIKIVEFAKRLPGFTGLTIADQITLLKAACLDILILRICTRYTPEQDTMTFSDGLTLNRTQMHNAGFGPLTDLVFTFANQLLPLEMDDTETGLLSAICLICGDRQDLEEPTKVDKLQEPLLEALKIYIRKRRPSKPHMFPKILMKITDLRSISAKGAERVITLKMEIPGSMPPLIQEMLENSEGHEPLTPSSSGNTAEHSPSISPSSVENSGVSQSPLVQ

RXRγ = target: T4, RXRγ (Mus musculus, UniProt P28705); test: Co-transfection assay (CV-1 cells), RXRγ agonist activity; format: cell-based; settings: read-out: RXRγ Pot (potency, EC50)
T4 construct: expressed in transfected cells; host or cells: CV-1 (African green monkey kidney fibroblasts)
T4 sequence (P28705 1-463): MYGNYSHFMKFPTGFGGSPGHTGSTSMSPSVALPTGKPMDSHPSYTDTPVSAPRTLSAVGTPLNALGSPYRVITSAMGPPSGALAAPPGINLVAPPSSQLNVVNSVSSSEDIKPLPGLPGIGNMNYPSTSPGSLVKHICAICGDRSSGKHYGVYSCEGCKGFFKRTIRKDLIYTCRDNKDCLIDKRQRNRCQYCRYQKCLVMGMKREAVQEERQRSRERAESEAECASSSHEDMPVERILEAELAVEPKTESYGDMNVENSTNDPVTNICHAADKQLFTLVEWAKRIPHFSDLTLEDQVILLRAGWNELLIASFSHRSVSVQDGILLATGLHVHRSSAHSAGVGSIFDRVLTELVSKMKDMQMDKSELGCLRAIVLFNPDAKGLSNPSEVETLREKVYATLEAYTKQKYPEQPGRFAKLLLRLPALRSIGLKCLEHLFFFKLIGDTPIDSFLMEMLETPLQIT

RXRα = target: T5, RXRα (Homo sapiens, UniProt P19793); test: Co-transfection assay (CV-1 cells), RXRα agonist activity; format: cell-based; settings: read-out: RXRα Pot (potency, EC50)
T5 construct: expressed in transfected cells; host or cells: CV-1 (African green monkey kidney fibroblasts)
T5 sequence (P19793 1-462): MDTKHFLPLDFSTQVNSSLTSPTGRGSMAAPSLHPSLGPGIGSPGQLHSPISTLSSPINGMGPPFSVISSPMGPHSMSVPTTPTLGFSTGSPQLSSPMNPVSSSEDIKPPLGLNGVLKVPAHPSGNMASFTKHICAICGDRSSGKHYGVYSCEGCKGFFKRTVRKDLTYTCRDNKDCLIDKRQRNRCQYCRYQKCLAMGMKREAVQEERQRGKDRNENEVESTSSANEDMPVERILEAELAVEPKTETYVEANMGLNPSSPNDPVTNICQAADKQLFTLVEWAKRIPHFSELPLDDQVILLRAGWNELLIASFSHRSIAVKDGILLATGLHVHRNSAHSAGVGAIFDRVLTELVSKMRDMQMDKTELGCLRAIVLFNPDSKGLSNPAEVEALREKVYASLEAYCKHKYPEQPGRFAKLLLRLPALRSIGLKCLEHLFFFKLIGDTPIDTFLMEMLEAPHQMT

RXRβ = target: T6, RXRβ (Mus musculus, UniProt P28704); test: Co-transfection assay (CV-1 cells), RXRβ agonist activity; format: cell-based; settings: read-out: RXRβ Pot (potency, EC50)
T6 construct: expressed in transfected cells; host or cells: CV-1 (African green monkey kidney fibroblasts)
T6 sequence (P28704 1-520): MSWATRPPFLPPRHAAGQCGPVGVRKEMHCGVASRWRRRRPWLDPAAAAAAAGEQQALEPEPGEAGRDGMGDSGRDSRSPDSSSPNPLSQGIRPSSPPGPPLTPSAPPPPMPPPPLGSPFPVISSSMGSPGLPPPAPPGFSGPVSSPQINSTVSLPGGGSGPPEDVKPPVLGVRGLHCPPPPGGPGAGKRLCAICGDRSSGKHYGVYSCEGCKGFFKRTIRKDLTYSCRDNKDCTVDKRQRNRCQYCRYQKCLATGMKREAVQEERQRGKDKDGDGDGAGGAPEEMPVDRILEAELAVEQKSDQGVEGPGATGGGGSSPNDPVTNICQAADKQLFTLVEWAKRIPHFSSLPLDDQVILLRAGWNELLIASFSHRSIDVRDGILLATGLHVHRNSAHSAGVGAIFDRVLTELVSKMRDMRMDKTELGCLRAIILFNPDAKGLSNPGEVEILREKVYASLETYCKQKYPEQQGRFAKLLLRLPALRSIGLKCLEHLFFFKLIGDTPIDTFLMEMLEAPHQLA

RXR = test: Co-transfection assay, RXR subfamily; format: cell-based
Method: as §1
as §2, with “Biol. 773 (1992), the disclosure of which is herein incorporated by reference.” left out
The co-transfection assay can detect small molecule agonists or antagonists of target IRs. […] This activity can be conveniently measured, e.g., by increasing luciferase production, which reflects compound-dependent, IR-mediated increases in reporter transcription. […]

IC50 (AML-193): 0.0001 µM
activity on RARγ (in words) (RARγ): sub-nanomolar activity
binding compared to ATRA and 9-cis (in words) (RAR and RXR receptors): equal or superior binding
SMILES: CC(/C=C/C=C(\C)c1cc(C(C)(C)C)cc(C(C)(C)C)c1)=C\C(=O)O [Compound 9, (2E, 4E, 6E)-7-(3,5-Di-t-butylphenyl)-3-methylocta-2,4,6-trienoic acid]
RAR activity (in words) (RARs): extremely potent RAR active compounds

EC50 (RARα): 0.059 µM
EC50 (RARβ): 0.023 µM
EC50 (RXRγ): 0.056 µM
EC50 (RXRα): 0.127 µM
EC50 (RARγ; co-transfection assay, CV-1 cells, read-out: RARγ Pot (potency, EC50)): 0.016 µM
EC50 (RXRβ): 0.048 µM
SMILES: CCCC(O)c1cc(C(C)(C)C)cc(C(C)(C)C)c1 (centres unmarked) [Compound 19, 1-(3,5-Di-t-butylphenyl)butan-1-ol]

SMILES: CCC/C(=C/C=C/C(C)=C/C(=O)O)c1cc(C(C)(C)C)cc(C(C)(C)C)c1 [Compound 28, (2E. 4E 6Z)-7-(3,5-Di-t-butylphenyl)-3-methyldeca-2,4,6-trienoic acid]
RXR activity (in words) (RXR): very potent and selective RXR active compound
